According to US12479831B2, “Substituted N(-methyl-D3)pyridazine-3-carboxamide or M-(methyl-D3)-nicotinamide compounds as IL-12, IL-23 and/or IFNα modulators” (BRISTOL-MYERS SQUIBB COMPANY, priority 2020, dated 2025):

test system: IFNα-Induced STAT Phosphorylation in Human Whole Blood; test: IFNα-Induced STAT Phosphorylation in Human Whole Blood; type: cell-based; details: 1 h incubation with compound, 1000 U/mL recombinant human IFNα A/D for 15 min, pSTAT5 (pY694) median fluorescence intensity in CD3 positive population, read-out: hWB IC50
Protocol: IFNα-Induced STAT Phosphorylation in Human Whole Blood
After an hour long incubation with compound, human whole blood (drawn with either EDTA or ACD-A as anti-coagulant) was stimulated with 1000 U/mL recombinant human IFNα A/D (R&D Systems 11200-2) for 15 min. The stimulation was stopped by adding Fix/Lyse buffer (BD 558049). Cells were stained with a CD3 FITC antibody (BD 555916), washed, and permeabilized on ice using Perm III buffer (BD 558050). […] The amount of pSTAT5 expression was quantitated by median fluorescence intensity after gating on the CD3 positive population.
IFNα-Induced STAT Phosphorylation in Human Whole Blood Inhibition Data

For `[2H]C([2H])([2H])NC(=O)c1nnc(Nc2cc3n(n2)CCN(C)C3=O)cc1Nc1cccc(-c2ncc(F)cn2)c1OC` [Example 107, 4-((3-(5-Fluoropyrimidin-2-yl)-2-methoxyphenyl)amino)-N-(methyl-d3)-6-((5-methyl-4-oxo-4,5,6,7-tetrahydropyrazolo[1,5-a]pyrazin-2-yl)amino)pyridazine-3-carboxamide], which IC50 is on record?
Its IC50 is 0.081 µM.

How did the IC50 turn out when `[2H]C([2H])([2H])NC(=O)c1nnc(NC(=O)C2CC2)cc1Nc1cc(F)cc(-c2ccc(C(=O)N(C)C)nn2)c1OC` [Example 42, 6-(cyclopropanecarboxamido)-4-((3-(6-(dimethylcarbamoyl)pyridazin-3-yl)-5-fluoro-2-methoxyphenyl)amino)-N-(methyl-d3)pyridazine-3-carboxamide] was run?
The IC50 was 0.056 µM.

With `[2H]C([2H])([2H])NC(=O)c1nnc(Nc2cc3n(n2)CCN(C)C3=O)cc1Nc1cccc(-c2ncccn2)c1OC` [Example 108, 4-((2-Methoxy-3-(pyrimidin-2-yl)phenyl)amino)-N-(methyl-d3)-6-((5-methyl-4-oxo-4,5,6,7-tetrahydropyrazolo[1,5-a]pyrazin-2-yl)amino)pyridazine-3-carboxamide] as the compound, how does the IC50 read?
The IC50 was 0.137 µM.

With `[2H]C([2H])([2H])NC(=O)c1nnc(Nc2ccc(C3CC3)nn2)cc1Nc1cccc(-c2ncc(F)cn2)c1OC` [Example 99, 6-((6-cyclopropylpyridazin-3-yl)amino)-4-((3-(5-fluoropyrimidin-2-yl)-2-methoxyphenyl)amino)-N-(methyl-d3)pyridazine-3-carboxamide] as the compound, how does the IC50 read?
Its IC50 is 0.071 µM.

`[2H]C([2H])([2H])NC(=O)c1nnc(NC(=O)C2CC2)cc1Nc1cccc(-c2ncc(C3(O)CCC3)cn2)c1OC` [Example 27, 6-(cyclopropanecarboxamido)-4-((3-(5-(1-hydroxycyclobutyl)pyrimidin-2-yl)-2-methoxyphenyl)amino)-N-(methyl-d3)pyridazine-3-carboxamide] was tested. Which IC50 did it give?
Its IC50 is 0.063 µM.

How did the IC50 turn out when `[2H]C([2H])([2H])NC(=O)c1nnc(Nc2cnn(C)n2)cc1Nc1cccc(-c2ncc(F)cn2)c1OC` [Example 90, 4-((3-(5-fluoropyrimidin-2-yl)-2-methoxyphenyl)amino)-N-(methyl-d3)-6-((2-methyl-2H-1,2,3-triazol-4-yl)amino)pyridazine-3-carboxamide] was run?
The IC50 was 0.17 µM.

Which IC50 does the source give for `[2H]C([2H])([2H])NC(=O)c1nnc(NC(=O)C2CC2)cc1Nc1cccc(-c2cnc(C3(O)CCOC3)cn2)c1OC` (stereo not drawn) [Example 34, 6-(cyclopropanecarboxamido)-4-((3-(5-(3-hydroxytetrahydrofuran-3-yl)pyrazin-2-yl)-2-methoxyphenyl)amino)-N-(methyl-d3)pyridazine-3-carboxamide] here?
The IC50 was 0.036 µM.

Which IC50 does the source give for `[2H]C([2H])([2H])NC(=O)c1nnc(NC(=O)C2CC2)cc1Nc1cccc(-c2ncc(C3CCOC3)cn2)c1OC` (stereo not drawn) [Example 55, 6-(Cyclopropanecarboxamido)-4-((2-methoxy-3-(5-(tetrahydrofuran-3-yl)pyrimidin-2-yl)phenyl)amino)-N-(methyl-d3)pyridazine-3-carboxamide] here?
The IC50 was 0.047 µM.

For `[2H]C([2H])([2H])NC(=O)c1cnc(Nc2ccn(C3CC3)n2)cc1Nc1cccc(-c2ncc(F)cn2)c1OC` [Example 68, 6-((1-cyclopropyl-1H-pyrazol-3-yl)amino)-4-((3-(5-fluoropyrimidin-2-yl)-2-methoxyphenyl)amino)-N-(methyl-d3)nicotinamide], which IC50 is on record?
Its IC50 is 0.134 µM.

For `[2H]C([2H])([2H])NC(=O)c1nnc(Nc2cnn(CC)n2)cc1Nc1cccc(-c2ncc(F)cn2)c1OC` [Example 87, 6-((2-ethyl-2H-1,2,3-triazol-4-yl)amino)-4-((3-(5-fluoropyrimidin-2-yl)-2-methoxyphenyl)amino)-N-(methyl-d3)pyridazine-3-carboxamide], which IC50 is on record?
The IC50 was 0.343 µM.

With `[2H]C([2H])([2H])NC(=O)c1nnc(NC(=O)C2CC2)cc1Nc1cccc(-c2ncc(C(C)(O)CF)cn2)c1OC` (stereo not drawn) [Example 26, 6-(cyclopropanecarboxamido)-4-((3-(5-(1-fluoro-2-hydroxypropan-2-yl)pyrimidin-2-yl)-2-methoxyphenyl)amino)-N-(methyl-d3)pyridazine-3-carboxamide] as the compound, how does the IC50 read?
Its IC50 is 0.016 µM.

With `[2H]C([2H])([2H])NC(=O)c1cnc(Nc2cc(C(F)(F)F)n(C)n2)cc1Nc1cccc(-c2ncc(F)cn2)c1OC` [Example 64, 4-((3-(5-fluoropyrimidin-2-yl)-2-methoxyphenyl)amino)-N-(methyl-d3)-6-((1-methyl-5-(trifluoromethyl)-1H-pyrazol-3-yl)amino)nicotinamide] as the compound, how does the IC50 read?
Its IC50 is 0.075 µM.

Which IC50 does the source give for `[2H]C([2H])([2H])NC(=O)c1nnc(NC(=O)C2CC2)cc1Nc1cccc(-c2cnc(C(=O)N3CCOCC3)cn2)c1OC` [Example 38, 6-(cyclopropanecarboxamido)-4-((2-methoxy-3-(5-(morpholine-4-carbonyl)pyrazin-2-yl)phenyl)amino)-N-(methyl-d3)pyridazine-3-carboxamide] here?
Its IC50 is 0.044 µM.

`[2H]C([2H])([2H])NC(=O)c1nnc(Nc2ccc(OC)nn2)cc1Nc1cccc(-c2ncccn2)c1OC` [Example 96, 4-((2-methoxy-3-(pyrimidin-2-yl)phenyl)amino)-6-((6-methoxypyridazin-3-yl)amino)-N-(methyl-d3)pyridazine-3-carboxamide] was tested. Which IC50 did it give?
Its IC50 is 0.096 µM.

How did the IC50 turn out when `[2H]C([2H])([2H])NC(=O)c1nnc(NC(=O)C2CC2)cc1Nc1cccc(-c2cnc(N3CCOCC3)cn2)c1OC` [Example 57, 6-(Cyclopropanecarboxamido)-4-((2-methoxy-3-(5-morpholinopyrazin-2-yl)phenyl)amino)-N-(methyl-d3)pyridazine-3-carboxamide] was run?
The IC50 was 0.117 µM.

With `[2H]C([2H])([2H])NC(=O)c1nnc(NC(=O)C2CC2)cc1Nc1cccc(-c2cnc(C(=O)NC)cn2)c1OC` [Example 39, 6-(cyclopropanecarboxamido)-4-((2-methoxy-3-(5-(methylcarbamoyl)pyrazin-2-yl)phenyl)amino)-N-(methyl-d3)pyridazine-3-carboxamide] as the compound, how does the IC50 read?
The IC50 was 0.218 µM.

`[2H]C([2H])([2H])NC(=O)c1nnc(NC(=O)C2CC2)cc1Nc1cccc(-c2ncc(N3CCCC3=O)cn2)c1OC` [Example 112] was tested. Which IC50 did it give?
The IC50 was 0.027 µM.

Which IC50 does the source give for `[2H]C([2H])([2H])NC(=O)c1nnc(NC(=O)C2CC2)cc1Nc1cccc(-c2ncc(C3(O)CCOC3)cn2)c1OC` (stereo not drawn) [Example 31, 6-(cyclopropanecarboxamido)-4-((3-(5-(3-hydroxytetrahydrofuran-3-yl)pyrimidin-2-yl)-2-methoxyphenyl)amino)-N-(methyl-d3)pyridazine-3-carboxamide] here?
Its IC50 is 0.024 µM.

How did the IC50 turn out when `[2H]C([2H])([2H])NC(=O)c1nnc(NC(=O)C2CC2)cc1Nc1cccc(-c2ccc(=O)n(C)n2)c1OC` [Example 9, 6-(cyclopropanecarboxamido)-4-((2-methoxy-3-(1-methyl-6-oxo-1,6-dihydropyridazin-3-yl)phenyl)amino)-N-(methyl-d3)pyridazine-3-carboxamide] was run?
The IC50 was 0.214 µM.

`[2H]C([2H])([2H])NC(=O)c1nnc(NC(=O)C2CCC2)cc1Nc1cccc(-c2ncccn2)c1OC` [Example 4, 6-(cyclobutanecarboxamido)-4-((2-methoxy-3-(pyrimidin-2-yl)phenyl)amino)-N-(methyl-d3)pyridazine-3-carboxamide] was tested. Which IC50 did it give?
The IC50 was 0.348 µM.

How did the IC50 turn out when `[2H]C([2H])([2H])NC(=O)c1nnc(Nc2cnn(CC)n2)cc1Nc1cccc(-c2ncccn2)c1OC` [Example 86, 6-((2-ethyl-2H-1,2,3-triazol-4-yl)amino)-4-((2-methoxy-3-(pyrimidin-2-yl)phenyl)amino)-N-(methyl-d3)pyridazine-3-carboxamide] was run?
Its IC50 is 0.096 µM.

`[2H]C([2H])([2H])NC(=O)c1cnc(NC(=O)C2CC2)cc1Nc1cccc(-c2ncc(N3CCOCC3)cn2)c1OC` [Example 16, 6-(cyclopropanecarboxamido)-4-((2-methoxy-3-(5-morpholinopyrimidin-2-yl)phenyl)amino)-N-(methyl-d3)nicotinamide] was tested. Which IC50 did it give?
The IC50 was 0.054 µM.

`[2H]C([2H])([2H])NC(=O)c1nnc(Nc2cc(C(C)(C)O)n(C)n2)cc1Nc1cccc(-c2ncc(F)cn2)c1OC` [Example 82, 4-((3-(5-fluoropyrimidin-2-yl)-2-methoxyphenyl)amino)-6-((5-(2-hydroxypropan-2-yl)-1-methyl-1H-pyrazol-3-yl)amino)-N-(methyl-d3)pyridazine-3-carboxamide] was tested. Which IC50 did it give?
Its IC50 is 0.049 µM.

With `[2H]C([2H])([2H])NC(=O)c1cnc(Nc2cnc(C#N)cn2)cc1Nc1cccc(-c2ncc(F)cn2)c1OC` [Example 71, 6-((5-cyanopyrazin-2-yl)amino)-4-((3-(5-fluoropyrimidin-2-yl)-2-methoxyphenyl)amino)-N-(methyl-d3)nicotinamide] as the compound, how does the IC50 read?
Its IC50 is 0.278 µM.

With `[2H]C([2H])([2H])NC(=O)c1cnc(Nc2cnc(C#N)cn2)cc1Nc1cccc(-c2ncccn2)c1OC` [Example 72, 6-((5-cyanopyrazin-2-yl)amino)-4-((2-methoxy-3-(pyrimidin-2-yl)phenyl)amino)-N-(methyl-d3)nicotinamide] as the compound, how does the IC50 read?
The IC50 was 0.168 µM.

With `[2H]C([2H])([2H])NC(=O)c1nnc(NC(=O)C2CC2)cc1Nc1cccc(-c2ncc(C#N)cn2)c1OC` [Example 2, 4-((3-(5-cyanopyrimidin-2-yl)-2-methoxyphenyl)amino)-6-(cyclopropanecarboxamido)-N-(methyl-d3)pyridazine-3-carboxamide] as the compound, how does the IC50 read?
Its IC50 is 0.426 µM.

Which IC50 does the source give for `[2H]C([2H])([2H])NC(=O)c1nnc(Nc2ccc(C#N)nn2)cc1Nc1cccc(-c2ncc(F)cn2)c1OC` [Example 95, 6-((6-cyanopyridazin-3-yl)amino)-4-((3-(5-fluoropyrimidin-2-yl)-2-methoxyphenyl)amino)-N-(methyl-d3)pyridazine-3-carboxamide] here?
The IC50 was 0.182 µM.
